Reference: article PMC4730229, “Benzobisthiazoles Represent a Novel Scaffold for Kinase Inhibitors of CLK Family Members” (Biochemistry, 2015)

Columns and labels:
Dyrk1A = molecular target: T1, Dyrk1A (Homo sapiens, UniProt Q13627); assay: Kinase profiling (radioactive filter binding); assay type: biochemical; conditions: for DYRK1A activity in kinase profiling: 1 uM compound; for inhibition at 1 µM: 1 μM compound, read-out: inhibitory activity toward DYRK1A in kinase panel
T1 construct: purchased Invitrogen PV3785

RSK2 = RSK2 (Homo sapiens, UniProt P51812); assay: Kinase profiling (radioactive filter binding); assay type: biochemical; conditions: 1 uM compound
Procedure: (§1) 3A5 and 5E4 were sent to the International Centre for Kinase Profiling at the MRC Protein Phosphorylation and Ubiquitylation Unit for profiling (as described in ref ([17])). Compounds were profiled against 140 kinases using a radioactive ([^33P]ATP) filter binding assay at a concentration of 1 μM. Results were obtained as inhibition of kinase activity and are listed in Supplementary Table 2.

CK2 = CK2 (Homo sapiens, UniProt P68400); assay: Kinase profiling (radioactive filter binding); assay type: biochemical; conditions: 1 uM compound
Procedure: as §1

ABL = ABL (Homo sapiens, UniProt P00519); assay: Kinase profiling (radioactive filter binding); assay type: biochemical; conditions: 1 uM compound
Procedure: as §1

MEKK1 = MEKK1 (Homo sapiens, UniProt Q13233); assay: Kinase profiling (radioactive filter binding); assay type: biochemical; conditions: 1 uM compound
Procedure: as §1

TTBK1 = TTBK1 (Homo sapiens, UniProt Q5TCY1); assay: Kinase profiling (radioactive filter binding); assay type: biochemical; conditions: 1 uM compound
Procedure: as §1

SIK3 = SIK3 (Homo sapiens, UniProt Q9Y2K2); assay: Kinase profiling (radioactive filter binding); assay type: biochemical; conditions: 1 uM compound
Procedure: as §1

CK1γ2 = CK1γ2 (Homo sapiens, UniProt P78368); assay: Kinase profiling (radioactive filter binding); assay type: biochemical; conditions: 1 uM compound
Procedure: as §1

SIK2 = SIK2 (Homo sapiens, UniProt Q9H0K1); assay: Kinase profiling (radioactive filter binding); assay type: biochemical; conditions: 1 uM compound
Procedure: as §1

EPH-A2 = EPH-A2 (Homo sapiens, UniProt P29317); assay: Kinase profiling (radioactive filter binding); assay type: biochemical; conditions: 1 uM compound
Procedure: as §1

Src = Src (Homo sapiens, UniProt P12931); assay: Kinase profiling (radioactive filter binding); assay type: biochemical; conditions: 1 uM compound
Procedure: as §1

CK1δ = CK1δ (Homo sapiens, UniProt P48730); assay: Kinase profiling (radioactive filter binding); assay type: biochemical; conditions: 1 uM compound
Procedure: as §1

MARK2 = MARK2 (Homo sapiens, UniProt Q7KZI7); assay: Kinase profiling (radioactive filter binding); assay type: biochemical; conditions: 1 uM compound
Procedure: as §1

PRAK = PRAK (Homo sapiens, UniProt Q8IW41); assay: Kinase profiling (radioactive filter binding); assay type: biochemical; conditions: 1 uM compound
Procedure: as §1

DYRK3 = DYRK3 (Homo sapiens, UniProt O43781); assay: Kinase profiling (radioactive filter binding); assay type: biochemical; conditions: 1 uM compound
Procedure: as §1

ULK1 = ULK1 (Homo sapiens, UniProt O75385); assay: Kinase profiling (radioactive filter binding); assay type: biochemical; conditions: 1 uM compound
Procedure: as §1

TIE2 = TIE2 (Homo sapiens, UniProt Q02763); assay: Kinase profiling (radioactive filter binding); assay type: biochemical; conditions: 1 uM compound
Procedure: as §1

PDGFRA = PDGFRA (Homo sapiens, UniProt P16234); assay: Kinase profiling (radioactive filter binding); assay type: biochemical; conditions: 1 uM compound
Procedure: as §1

JNK3 = JNK3 (Homo sapiens, UniProt P53779); assay: Kinase profiling (radioactive filter binding); assay type: biochemical; conditions: 1 uM compound
Procedure: as §1

PKCγ = PKCγ (Homo sapiens, UniProt P05129); assay: Kinase profiling (radioactive filter binding); assay type: biochemical; conditions: 1 uM compound
Procedure: as §1

MAPKAP-K2 = MAPKAP-K2 (Homo sapiens, UniProt P49137); assay: Kinase profiling (radioactive filter binding); assay type: biochemical; conditions: 1 uM compound
Procedure: as §1

SRPK1 = SRPK1 (Homo sapiens, UniProt Q96SB4); assay: Kinase profiling (radioactive filter binding); assay type: biochemical; conditions: 1 uM compound
Procedure: as §1

CDK9-Cyclin T1 = CDK9-Cyclin T1 (Homo sapiens, UniProt P50750); assay: Kinase profiling (radioactive filter binding); assay type: biochemical; conditions: 1 uM compound
Procedure: as §1

PIM1 = PIM1 (Homo sapiens, UniProt P11309); assay: Kinase profiling (radioactive filter binding); assay type: biochemical; conditions: 1 uM compound
Procedure: as §1

AMPK (hum) = assay: Kinase profiling (radioactive filter binding); assay type: biochemical, human; conditions: 1 uM compound
Procedure: as §1

PHK = assay: Kinase profiling (radioactive filter binding); assay type: biochemical, human; conditions: 1 uM compound
Procedure: as §1

CLK2 = CLK2 (Homo sapiens, UniProt P49760); assay: Kinase inhibition assay, IC50; assay type: biochemical; set-up: cDNA encoding the CLK2 catalytic domain (CLK2cd, amino acids 140–496); made in house; host or cells: Escherichia coli BL21(DE3)-R3-lambda-PPase; conditions: relative to 3A5

Chain of CK1γ2 (P78368 whole entry): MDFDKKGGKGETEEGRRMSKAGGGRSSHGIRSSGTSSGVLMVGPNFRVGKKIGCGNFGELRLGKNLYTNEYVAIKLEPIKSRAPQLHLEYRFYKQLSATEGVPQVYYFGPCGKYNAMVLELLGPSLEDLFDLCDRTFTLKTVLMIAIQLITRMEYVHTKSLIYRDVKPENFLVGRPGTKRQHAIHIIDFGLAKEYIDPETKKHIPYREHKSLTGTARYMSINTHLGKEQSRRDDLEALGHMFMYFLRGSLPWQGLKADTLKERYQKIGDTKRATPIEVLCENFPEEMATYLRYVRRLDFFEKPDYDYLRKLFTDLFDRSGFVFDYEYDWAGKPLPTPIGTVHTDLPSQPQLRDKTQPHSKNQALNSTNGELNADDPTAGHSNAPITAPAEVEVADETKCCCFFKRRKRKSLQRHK
Chain of PDGFRA (P16234 24-1089): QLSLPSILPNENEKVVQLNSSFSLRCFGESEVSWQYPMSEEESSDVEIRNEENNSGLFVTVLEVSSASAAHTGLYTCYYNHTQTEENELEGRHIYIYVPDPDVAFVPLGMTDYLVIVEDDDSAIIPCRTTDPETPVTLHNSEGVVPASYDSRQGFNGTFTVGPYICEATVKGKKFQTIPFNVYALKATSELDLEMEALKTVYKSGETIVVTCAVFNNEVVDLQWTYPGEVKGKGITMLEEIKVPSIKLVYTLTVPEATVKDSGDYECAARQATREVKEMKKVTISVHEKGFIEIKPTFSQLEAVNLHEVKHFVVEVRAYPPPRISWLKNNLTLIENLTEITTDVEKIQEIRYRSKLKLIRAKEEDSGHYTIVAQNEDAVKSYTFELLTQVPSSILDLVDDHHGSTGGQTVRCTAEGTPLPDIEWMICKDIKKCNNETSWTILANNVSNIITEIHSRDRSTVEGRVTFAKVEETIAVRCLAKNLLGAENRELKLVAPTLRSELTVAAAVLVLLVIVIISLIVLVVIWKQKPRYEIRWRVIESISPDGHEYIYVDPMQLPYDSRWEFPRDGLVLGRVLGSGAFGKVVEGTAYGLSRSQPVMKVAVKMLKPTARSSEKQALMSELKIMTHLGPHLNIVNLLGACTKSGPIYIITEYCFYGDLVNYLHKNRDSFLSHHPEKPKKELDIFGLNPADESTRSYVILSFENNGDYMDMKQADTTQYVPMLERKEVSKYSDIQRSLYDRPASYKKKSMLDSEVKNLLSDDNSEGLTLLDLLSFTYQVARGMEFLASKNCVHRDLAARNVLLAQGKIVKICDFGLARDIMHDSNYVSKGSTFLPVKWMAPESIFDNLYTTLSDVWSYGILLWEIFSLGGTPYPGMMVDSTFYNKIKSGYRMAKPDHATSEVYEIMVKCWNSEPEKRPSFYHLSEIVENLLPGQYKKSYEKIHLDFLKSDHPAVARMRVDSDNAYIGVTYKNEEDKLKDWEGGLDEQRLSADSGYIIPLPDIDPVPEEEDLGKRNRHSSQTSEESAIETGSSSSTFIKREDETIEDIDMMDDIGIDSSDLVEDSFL
Chain of SIK2 (Q9H0K1 whole entry): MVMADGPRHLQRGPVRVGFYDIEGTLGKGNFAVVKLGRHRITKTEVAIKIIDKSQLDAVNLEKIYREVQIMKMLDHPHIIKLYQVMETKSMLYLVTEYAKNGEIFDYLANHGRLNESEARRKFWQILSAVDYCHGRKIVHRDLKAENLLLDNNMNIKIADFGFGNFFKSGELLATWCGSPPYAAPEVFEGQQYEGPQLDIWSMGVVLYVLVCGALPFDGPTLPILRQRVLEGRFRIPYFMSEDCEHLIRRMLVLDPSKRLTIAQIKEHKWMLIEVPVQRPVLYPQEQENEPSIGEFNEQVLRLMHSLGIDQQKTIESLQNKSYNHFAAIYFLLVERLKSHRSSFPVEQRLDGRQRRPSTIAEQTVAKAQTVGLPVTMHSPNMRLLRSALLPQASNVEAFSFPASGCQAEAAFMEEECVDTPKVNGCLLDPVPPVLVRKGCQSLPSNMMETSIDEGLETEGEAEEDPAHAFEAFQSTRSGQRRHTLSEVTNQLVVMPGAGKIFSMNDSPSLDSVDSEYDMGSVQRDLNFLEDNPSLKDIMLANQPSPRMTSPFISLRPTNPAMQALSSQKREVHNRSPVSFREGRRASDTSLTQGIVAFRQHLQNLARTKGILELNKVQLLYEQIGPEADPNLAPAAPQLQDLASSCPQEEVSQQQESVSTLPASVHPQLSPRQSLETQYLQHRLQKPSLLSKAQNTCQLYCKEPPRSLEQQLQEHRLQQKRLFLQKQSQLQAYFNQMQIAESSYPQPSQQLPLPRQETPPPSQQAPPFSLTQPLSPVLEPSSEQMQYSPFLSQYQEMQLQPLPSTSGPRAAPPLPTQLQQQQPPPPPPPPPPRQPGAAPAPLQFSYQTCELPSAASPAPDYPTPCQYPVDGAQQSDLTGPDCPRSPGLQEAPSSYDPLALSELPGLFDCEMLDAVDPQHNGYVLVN
Chain of MEKK1 (Q13233 whole entry): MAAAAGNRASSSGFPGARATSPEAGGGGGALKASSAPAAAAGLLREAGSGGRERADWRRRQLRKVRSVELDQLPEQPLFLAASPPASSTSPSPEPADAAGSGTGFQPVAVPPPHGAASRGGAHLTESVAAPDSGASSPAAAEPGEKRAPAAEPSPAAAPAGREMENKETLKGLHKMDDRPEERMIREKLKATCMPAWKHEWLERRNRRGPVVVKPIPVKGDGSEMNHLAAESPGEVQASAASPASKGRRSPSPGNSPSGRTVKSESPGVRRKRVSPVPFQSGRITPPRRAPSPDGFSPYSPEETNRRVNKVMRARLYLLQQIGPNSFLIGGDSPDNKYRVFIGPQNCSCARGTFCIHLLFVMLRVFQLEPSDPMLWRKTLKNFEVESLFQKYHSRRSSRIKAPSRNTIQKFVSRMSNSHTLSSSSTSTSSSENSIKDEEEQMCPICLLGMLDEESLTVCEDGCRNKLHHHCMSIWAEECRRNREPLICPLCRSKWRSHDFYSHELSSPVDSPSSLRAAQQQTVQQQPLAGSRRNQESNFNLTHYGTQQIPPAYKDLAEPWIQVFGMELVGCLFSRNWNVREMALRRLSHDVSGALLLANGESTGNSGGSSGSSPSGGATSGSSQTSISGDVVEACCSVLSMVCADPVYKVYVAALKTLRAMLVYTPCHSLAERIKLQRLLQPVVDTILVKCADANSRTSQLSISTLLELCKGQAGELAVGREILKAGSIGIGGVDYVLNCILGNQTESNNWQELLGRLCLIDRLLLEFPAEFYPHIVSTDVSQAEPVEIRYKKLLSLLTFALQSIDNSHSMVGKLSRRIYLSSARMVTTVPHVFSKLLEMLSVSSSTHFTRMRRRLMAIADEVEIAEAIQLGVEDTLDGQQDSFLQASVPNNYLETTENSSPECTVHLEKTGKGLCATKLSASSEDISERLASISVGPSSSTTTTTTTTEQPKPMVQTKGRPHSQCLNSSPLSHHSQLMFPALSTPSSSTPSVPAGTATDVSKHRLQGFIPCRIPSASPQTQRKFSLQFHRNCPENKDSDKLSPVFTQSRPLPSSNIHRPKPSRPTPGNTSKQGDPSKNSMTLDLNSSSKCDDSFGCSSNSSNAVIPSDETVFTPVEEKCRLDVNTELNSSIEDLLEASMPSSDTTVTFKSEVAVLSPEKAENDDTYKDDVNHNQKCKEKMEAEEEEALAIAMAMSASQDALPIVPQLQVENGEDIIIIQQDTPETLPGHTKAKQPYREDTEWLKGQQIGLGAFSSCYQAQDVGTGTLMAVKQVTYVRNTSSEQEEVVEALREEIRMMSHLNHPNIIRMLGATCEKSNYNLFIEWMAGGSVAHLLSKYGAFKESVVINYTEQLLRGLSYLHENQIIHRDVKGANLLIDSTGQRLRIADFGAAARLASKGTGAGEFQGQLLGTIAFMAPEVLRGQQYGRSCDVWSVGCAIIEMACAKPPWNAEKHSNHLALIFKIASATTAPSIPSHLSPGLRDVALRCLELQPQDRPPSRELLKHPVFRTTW
Chain of CK2 (P68400 whole entry): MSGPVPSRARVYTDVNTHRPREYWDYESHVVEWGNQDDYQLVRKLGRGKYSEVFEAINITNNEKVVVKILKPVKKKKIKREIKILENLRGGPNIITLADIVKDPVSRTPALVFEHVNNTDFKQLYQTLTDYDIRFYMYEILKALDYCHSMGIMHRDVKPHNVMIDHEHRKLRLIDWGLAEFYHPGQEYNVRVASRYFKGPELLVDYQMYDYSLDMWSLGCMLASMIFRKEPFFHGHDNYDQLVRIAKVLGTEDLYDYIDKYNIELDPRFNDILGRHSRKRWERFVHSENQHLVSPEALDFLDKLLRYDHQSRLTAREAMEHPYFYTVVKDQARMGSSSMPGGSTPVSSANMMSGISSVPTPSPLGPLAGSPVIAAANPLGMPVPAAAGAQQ

Structure (SMILES)	DYRK1A activity in kinase profiling (Dyrk1A)	inhibition at 1 µM (Dyrk1A) [%]	RSK2 activity in kinase profiling (RSK2)	CK2 activity in kinase profiling (CK2)	ABL activity in kinase profiling (ABL)	MEKK1 activity in kinase profiling (MEKK1)	TTBK1 activity in kinase profiling (TTBK1)	SIK3 activity in kinase profiling (SIK3)	CK1γ2 activity in kinase profiling (CK1γ2)	SIK2 activity in kinase profiling (SIK2)	EPH-A2 activity in kinase profiling (EPH-A2)	Src activity in kinase profiling (Src)	CK1δ activity in kinase profiling (CK1δ)	MARK2 activity in kinase profiling (MARK2)	PRAK activity in kinase profiling (PRAK)	DYRK3 activity in kinase profiling (DYRK3)	ULK1 activity in kinase profiling (ULK1)	TIE2 activity in kinase profiling (TIE2)	PDGFRA activity in kinase profiling (PDGFRA)	JNK3 activity in kinase profiling (JNK3)	further results
Cc1nc2ccc3sc(NC(=O)c4ccc5ncsc5c4)nc3c2s1 [3A5, N-(2-methyl[1,3]thiazolo[5,4-e][1,3]benzothiazol-7-yl)-1,3-benzothiazole-6-carboxamide]	16	84	120	105	102	79	101	84	22	91	134	89	34	87	89	72	138	98	91	107	PKCγ activity in kinase profiling (PKCγ): 102; MAPKAP-K2 activity in kinase profiling (MAPKAP-K2): 107; SRPK1 activity in kinase profiling (SRPK1): 56; CDK9-Cyclin T1 activity in kinase profiling (CDK9-Cyclin T1): 87; PIM1 activity in kinase profiling (PIM1): 71; AMPK (hum) activity in kinase profiling (AMPK (hum)): 68; PHK activity in kinase profiling (PHK): 104
CSc1nc2ccc3nc(NC(=O)c4ccco4)sc3c2s1 [5E4, N-[7-(methylsulfanyl)[1,3]thiazolo[4,5-g][1,3]benzothiazol-2-yl]-2-furamide]	3	97	100	77	61	108	99	79	88	94	162	79	94	90	85	30	127	89	86	123	PKCγ activity in kinase profiling (PKCγ): 100; MAPKAP-K2 activity in kinase profiling (MAPKAP-K2): 92; SRPK1 activity in kinase profiling (SRPK1): 81; CDK9-Cyclin T1 activity in kinase profiling (CDK9-Cyclin T1): 88; PIM1 activity in kinase profiling (PIM1): 96; decrease of inhibition against CLK2 compared to 3A5 (CLK2): 2–3 fold; AMPK (hum) activity in kinase profiling (AMPK (hum)): 84; PHK activity in kinase profiling (PHK): 110
